In article PMC5951806, “Rapid labelling and covalent inhibition of intracellular native proteins using ligand-directed N-acyl-N-alkyl sulfonamide” (Nature Communications, 2018):

Tests used:
Assay in all cases: TMT LC-MSMS of 11-labelled proteins
Type in all cases: cell-based
[1] = target: T1, Isoform 3 of Very long-chain specific acyl-CoA dehydrogenase, mitochondrial (ACADVL) (Homo sapiens, UniProt P49748)
T1 sequence (P49748 64-678 isoform P49748-3): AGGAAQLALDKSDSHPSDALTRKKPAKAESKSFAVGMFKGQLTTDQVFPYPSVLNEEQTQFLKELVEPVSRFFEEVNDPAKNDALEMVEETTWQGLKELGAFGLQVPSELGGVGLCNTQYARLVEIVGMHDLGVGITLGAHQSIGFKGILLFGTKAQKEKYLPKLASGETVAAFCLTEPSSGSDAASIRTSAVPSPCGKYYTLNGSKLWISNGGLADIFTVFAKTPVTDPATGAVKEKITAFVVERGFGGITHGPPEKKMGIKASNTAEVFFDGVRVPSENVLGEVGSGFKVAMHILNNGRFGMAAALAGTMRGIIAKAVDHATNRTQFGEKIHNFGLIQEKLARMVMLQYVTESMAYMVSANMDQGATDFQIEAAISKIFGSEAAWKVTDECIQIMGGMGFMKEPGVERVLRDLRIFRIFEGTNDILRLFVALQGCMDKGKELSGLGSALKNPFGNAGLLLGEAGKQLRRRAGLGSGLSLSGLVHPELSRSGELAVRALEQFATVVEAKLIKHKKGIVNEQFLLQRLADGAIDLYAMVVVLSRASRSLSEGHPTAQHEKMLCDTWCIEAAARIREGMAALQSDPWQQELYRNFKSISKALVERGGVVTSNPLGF

[2] = target: GTP-binding nuclear protein RAN (RAN) (Homo sapiens, UniProt P62826)
[3] = target: Heat shock cognate 71 kDa protein (HSPA8) (Homo sapiens, UniProt P11142)
[4] = sheet Exp1, SKBR3 cells, 11 0.5 µM 3 h vs DMSO
[5] = sheet Exp1, SKBR3 cells, 11 0.5 µM 3 h vs with PU-H71 10 µM
[6] = sheet Merged, SKBR3 cells, 11 0.5 µM 3 h vs DMSO
[7] = sheet Merged, SKBR3 cells, 11 0.5 µM 3 h vs with PU-H71 10 µM

Sequence of Heat shock cognate 71 kDa protein (HSPA8) (P11142 whole entry): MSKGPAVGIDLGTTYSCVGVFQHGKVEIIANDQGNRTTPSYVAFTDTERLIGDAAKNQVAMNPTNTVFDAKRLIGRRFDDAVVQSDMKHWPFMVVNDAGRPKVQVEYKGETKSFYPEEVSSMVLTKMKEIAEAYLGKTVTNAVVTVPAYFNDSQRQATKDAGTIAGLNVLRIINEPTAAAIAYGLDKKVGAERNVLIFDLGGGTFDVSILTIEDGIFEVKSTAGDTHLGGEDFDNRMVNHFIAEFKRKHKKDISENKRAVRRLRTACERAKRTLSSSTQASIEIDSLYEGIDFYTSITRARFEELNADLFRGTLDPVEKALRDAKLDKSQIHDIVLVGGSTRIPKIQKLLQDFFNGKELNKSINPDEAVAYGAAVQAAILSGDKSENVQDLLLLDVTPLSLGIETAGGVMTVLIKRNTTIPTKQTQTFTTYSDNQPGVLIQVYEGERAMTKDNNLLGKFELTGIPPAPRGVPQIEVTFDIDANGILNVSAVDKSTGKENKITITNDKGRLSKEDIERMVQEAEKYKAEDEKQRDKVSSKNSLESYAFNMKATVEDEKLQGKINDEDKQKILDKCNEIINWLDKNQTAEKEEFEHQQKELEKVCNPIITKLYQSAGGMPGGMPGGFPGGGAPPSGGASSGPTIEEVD

Abundance Ratio: (11) / (11 with PU-H71) ([1]; Exp3, ACADVL): 0.845 | Abundance Ratio: (11) / (DMSO) ([1]; Exp3, ACADVL): 5.056 | Abundances (Grouped): 11 ([1]; Exp3, ACADVL): 1747 | Abundances (Grouped): 11 with PU-H71 ([1]; Exp3, ACADVL): 2067.1 | Abundance Ratio: (11) / (DMSO) [1, 4]: 5.466 | Abundance Ratio: (11) / (11 with PU-H71) [1, 5]: 0.816 | Abundance Ratio: (11) / (11 with PU-H71) ([1]; sheet Exp2, ACADVL): 0.826 | Abundance Ratio: (11) / (DMSO) ([1]; sheet Exp2, ACADVL): 4.735 | Abundances (Grouped): 11 ([1]; sheet Exp2, ACADVL): 1334.4 | Abundances (Grouped): 11 with PU-H71 ([1]; sheet Exp2, ACADVL): 1615.2 | Abundance Ratio: (11) / (DMSO) [1, 6]: 4.735 | Abundance Ratio: (11) / (11 with PU-H71) [1, 7]: 0.826 | Abundance Ratio: (11) / (11 with PU-H71) ([2]; Exp3, RAN): 0.98 | Abundance Ratio: (11) / (DMSO) ([2]; Exp3, RAN): 2.764 | Abundances (Grouped): 11 ([2]; Exp3, RAN): 43.4 | Abundances (Grouped): 11 with PU-H71 ([2]; Exp3, RAN): 44.3 | Abundance Ratio: (11) / (DMSO) [2, 4]: 2.108 | Abundance Ratio: (11) / (11 with PU-H71) [2, 5]: 0.767 | Abundance Ratio: (11) / (11 with PU-H71) ([2]; sheet Exp2, RAN): 0.778 | Abundance Ratio: (11) / (DMSO) ([2]; sheet Exp2, RAN): 2.161 | Abundances (Grouped): 11 ([2]; sheet Exp2, RAN): 78 | Abundances (Grouped): 11 with PU-H71 ([2]; sheet Exp2, RAN): 100.3 | Abundance Ratio: (11) / (DMSO) [2, 6]: 2.599 | Abundance Ratio: (11) / (11 with PU-H71) [2, 7]: 0.946 | Abundance Ratio: (11) / (11 with PU-H71) ([3]; Exp3, HSPA8): 1.213 | Abundance Ratio: (11) / (DMSO) ([3]; Exp3, HSPA8): 3.219 | Abundances (Grouped): 11 ([3]; Exp3, HSPA8): 407.2 | Abundances (Grouped): 11 with PU-H71 ([3]; Exp3, HSPA8): 335.6 | Abundance Ratio: (11) / (DMSO) [3, 4]: 3.395 | Abundance Ratio: (11) / (11 with PU-H71) [3, 5]: 1.175 | Abundance Ratio: (11) / (11 with PU-H71) ([3]; sheet Exp2, HSPA8): 1.256 | Abundance Ratio: (11) / (DMSO) ([3]; sheet Exp2, HSPA8): 4.511 | Abundances (Grouped): 11 ([3]; sheet Exp2, HSPA8): 471.4 | Abundances (Grouped): 11 with PU-H71 ([3]; sheet Exp2, HSPA8): 375.4 | Abundance Ratio: (11) / (DMSO) [3, 6]: 3.381 | Abundance Ratio: (11) / (11 with PU-H71) [3, 7]: 1.191
SMILES: CC(=O)Oc1ccc2c(c1)Oc1cc(OC(C)=O)ccc1C21OC(=O)c2cc(C(=O)NCCOCCOCCNC(=O)CCCC(=O)N(CC#N)S(=O)(=O)c3ccc(C(=O)NCCCn4c(Sc5cc6c(cc5I)OCO6)nc5c(N)ncnc54)cc3)ccc21 [compound 11]
